This note sets out measurements from patent US9394250B2, “Substituted pyrrolidines as factor xia inhibitors for the treatment thromboembolic diseases” (ONO PHARMACEUTICAL CO., LTD., priority 2012, dated 2016).

Molecules are shown by their SMILES. Where a name gives a salt, the structure may show the parent alone.

What all share (assay type): biochemical
The target of one test is Human Factor XIa (Homo sapiens (Human), UniProt P03951). Briefly: Factor XIa enzyme activity, chromogenic substrate S-2366. The note with it: purified human Factor XIa 0.1 U/mL, 300 μM S-2366, pH7.4; read-out: In vitro FXIa inhibitory activity IC50. The method, then: (§1) Inhibitory activities of compounds of the present invention against factor XIa, Xa, XIIa, IXa, VIIa, plasma kallikrein or thrombin were evaluated using appropriate purified proteases and synthetic substrates. The rate of hydrolysis of the chromogenic substrate by the relevant protease was continuously measured at 405 nm. Inhibitory activity against each enzyme was calculated as % inhibition using the equation described below. % Inhibition=[[(rate without compound)−(rate with compound)]/(rate without compound)]×100%. Each half maximal inhibitory concentration (IC50) value was determined by plotting the concentration of compound of the invention against the % inhibition. (1-1) Factor XIa Enzyme Activity
Sequence of Human Factor XIa (P03951 388-625): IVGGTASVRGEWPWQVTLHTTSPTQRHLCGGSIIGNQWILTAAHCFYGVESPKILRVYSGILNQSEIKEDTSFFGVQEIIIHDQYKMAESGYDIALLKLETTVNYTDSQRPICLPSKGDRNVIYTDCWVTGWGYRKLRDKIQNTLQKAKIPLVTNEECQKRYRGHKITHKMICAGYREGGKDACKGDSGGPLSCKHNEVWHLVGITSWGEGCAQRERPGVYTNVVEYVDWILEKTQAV
Sequence of Human Factor XIa (P03951 19-387 partner): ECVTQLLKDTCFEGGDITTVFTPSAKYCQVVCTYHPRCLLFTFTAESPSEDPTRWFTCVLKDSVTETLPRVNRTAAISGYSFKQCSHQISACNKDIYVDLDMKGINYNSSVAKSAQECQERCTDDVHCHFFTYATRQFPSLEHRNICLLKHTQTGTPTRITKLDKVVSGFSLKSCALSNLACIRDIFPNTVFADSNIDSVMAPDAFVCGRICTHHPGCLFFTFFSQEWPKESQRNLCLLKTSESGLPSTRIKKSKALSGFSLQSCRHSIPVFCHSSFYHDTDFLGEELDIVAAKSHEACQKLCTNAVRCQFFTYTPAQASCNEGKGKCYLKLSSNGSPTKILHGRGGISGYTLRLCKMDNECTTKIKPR
Human Factor XIa (Haematologic Technologies Inc.) activity was measured at an enzyme concentration of 0.1 U/mL in 150 mM NaCl, 5 mM KCl, 1 mg/mL PEG6000, 50 mM HEPES-NaOH (pH7.4) with 300 μM S-2366 (pyroGlu-Pro-Arg-pNA, Chromogenix).

The target in a further test is Human Factor Xa (Homo sapiens (Human), UniProt P00742). Briefly: Factor Xa enzyme activity, chromogenic substrate S-2222. The note with it: human Factor Xa 0.18 U/mL, 300 μM S-2222, pH7.4; read-out: In vitro FXa inhibitory activity IC50. Here is the method: as §1
Sequence of Human Factor Xa (P00742 235-488): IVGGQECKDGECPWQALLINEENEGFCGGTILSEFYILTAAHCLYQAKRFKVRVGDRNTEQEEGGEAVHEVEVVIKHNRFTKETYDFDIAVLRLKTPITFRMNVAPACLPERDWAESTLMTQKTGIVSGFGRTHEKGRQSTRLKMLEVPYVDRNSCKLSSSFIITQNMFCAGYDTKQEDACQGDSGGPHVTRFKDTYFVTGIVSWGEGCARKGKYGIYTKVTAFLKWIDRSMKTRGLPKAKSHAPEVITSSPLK
Sequence of Human Factor Xa (P00742 41-179 partner): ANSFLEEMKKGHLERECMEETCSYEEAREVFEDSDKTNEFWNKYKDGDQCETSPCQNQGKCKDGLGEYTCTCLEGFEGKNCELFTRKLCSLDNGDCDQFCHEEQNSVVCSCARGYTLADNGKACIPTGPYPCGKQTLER
(§2) Human Factor Xa (American Diagnostica Inc.) and human thrombin (Sigma) activities were measured at the enzyme concentrations of 0.18 U/mL and 0.12 U/mL, respectively in the same buffer containing 150 mM NaCl, 2 mg/mL PEG6000, 50 mM Tris-HCl (pH7.4), except that the reactions were started with 300 μM S-2222 ([…], Chromogenix) and 300 μM S-2366, respectively.

A further test concerns the target human thrombin (Homo sapiens (Human), UniProt P00734). Briefly: Thrombin enzyme activity, chromogenic substrate S-2366. The note with it: human thrombin 0.12 U/mL, 300 μM S-2366, pH7.4; read-out: In vitro Thrombin inhibitory activity IC50. The method, then: as §1, §2

As a reminder, the IC50 is the concentration that gives 50% inhibition.

For the compound `COC(=O)Nc1ccc(-c2cnc([C@@H]3C[C@H](C4CCN(S(C)(=O)=O)CC4)CN3C(=O)C3CCN(C(=N)N)CC3)[nH]2)cc1` [Example 69, methyl [4-(2-{(2S,4R)-1-[(1-carbamimidoyl-4-piperidinyl)carbonyl]-4-[1-(methylsulfonyl)-4-piperidinyl]-2-pyrrolidinyl}-1H-imidazol-5-yl)phenyl]carbamate dihydrochloride], the IC50 on Human Factor XIa was 0.0074 µM; at Human Factor Xa, over 100 µM; on human thrombin it was over 100 µM.

On to `COC(=O)Nc1ccc(-c2cnc([C@@H]3C[C@H](C4CCN(S(C)(=O)=O)CC4)CN3C(=O)c3ccc(C(=N)N)cc3)[nH]2)cc1` [Example 73, methyl [4-(2-{(2S,4R)-1-(4-carbamimidoylbenzoyl)-4-[1-(methylsulfonyl)-4-piperidinyl]-2-pyrrolidinyl}-1H-imidazol-5-yl)phenyl]carbamate dihydrochloride], for which the results for the 50% inhibitory concentration (IC50) at Human Factor XIa, at Human Factor Xa and on human thrombin were 0.0044 µM, over 100 µM and 37 µM, respectively.

As for `COC(=O)Nc1ccc(-c2[nH]c([C@@H]3C[C@H](C4CCN(S(C)(=O)=O)CC4)CN3C(=O)N3CCN(C(=N)N)CC3)nc2Cl)cc1` [Example 88, methyl [4-(2-{(2S,4R)-1-[(4-carbamimidoyl-1-piperazinyl)carbonyl]-4-[1-(methylsulfonyl)-4-piperidinyl]-2-pyrrolidinyl}-4-chloro-1H-imidazol-5-yl)phenyl]carbamate bis(trifluoroacetate)], the half-inhibitory concentration (IC50) was 0.0054 µM on Human Factor XIa, over 100 µM at Human Factor Xa and 57 µM at human thrombin.

Take `Cn1cc(Cl)c2c(F)c(C(=O)N3C[C@@H](C4CCN(S(C)(=O)=O)CC4)C[C@H]3C(=O)Nc3ccc(C(=O)O)cc3)ccc21` [Example 93, 4-[({(2S,4R)-1-[(3-chloro-4-fluoro-1-methyl-1H-indol-5-yl)carbonyl]-4-[1-(methylsulfonyl)-4-piperidinyl]-2-pyrrolidinyl}carbonyl)amino]benzoic acid]: the IC50 at Human Factor XIa was 0.018 µM; at Human Factor Xa it was over 100 µM; at human thrombin, over 100 µM.

As for `O=C(O)c1ccc(NC(=O)[C@@H]2C[C@H](N3CCOCC3)CN2C(=O)/C=C/c2cc(Cl)ccc2-n2cnnn2)cc1` [Example 37, 4-({[(2S,4S)-1-{(2E)-3-[5-chloro-2-(1H-tetrazol-1-yl)phenyl]-2-propenoyl}-4-(4-morpholinyl)-2-pyrrolidinyl]carbonyl}amino)benzoic acid trifluoroacetate], the IC50 on Human Factor XIa is 0.013 µM; on Human Factor Xa, over 100 µM; at human thrombin, over 100 µM.

Turning to `COC(=O)Nc1ccc(-c2[nH]c([C@@H]3C[C@H](C4CCN(S(C)(=O)=O)CC4)CN3C(=O)/C=C/c3cc(Cl)ccc3-n3cnnn3)nc2Cl)cc1` [Example 94, methyl [4-(4-chloro-2-{(2S,4R)-1-{(2E)-3-[5-chloro-2-(1H-tetraol-1-yl)phenyl]-2-propenoyl}-4-[1-(methylsulfonyl)-4-piperidinyl]-2-pyrrolidinyl}-1H-imidazol-5-yl)phenyl]carbamate], the IC50 on Human Factor XIa was 0.0054 µM; on Human Factor Xa it was over 33 µM; on human thrombin, over 33 µM.

On to `COC(=O)Nc1ccc(-c2[nH]c([C@@H]3C[C@H](C4CCN(S(C)(=O)=O)CC4)CN3C(=O)[C@H]3CC[C@H](CN)CC3)nc2Cl)cc1` [Example 96, methyl [4-(2-{(2S,4R)-1-{[4-(aminomethyl)cyclohexyl]carbonyl}-4-[1-(methylsulfonyl)-4-piperidinyl]-2-pyrrolidinyl}-4-chloro-1H-imidazol-5-yl)phenyl]carbamate bis(trifluoroacetate)], for which the results for the IC50 on Human Factor XIa, on Human Factor Xa and on human thrombin were 0.0042 µM, over 100 µM and over 100 µM, respectively.

With `NC[C@H]1CC[C@H](C(=O)N2C[C@@H](N3CCN(S(=O)(=O)C4CC4)CC3)C[C@H]2C(=O)Nc2ccc(C(=O)O)cc2)CC1` [Example 55, 4-[({(2S,4S)-1-{[trans-4-(aminomethyl)cyclohexyl]carbonyl}-4-[4-(cyclopropylsulfonyl)-1-piperazinyl]-2-pyrrolidinyl}carbonyl)amino]benzoic acid bis(trifluoroacetate)], the figures for the IC50 on Human Factor XIa, at Human Factor Xa and on human thrombin were 0.014 µM, over 100 µM and over 100 µM, respectively.

For `O=C(Nc1ccc2nn[nH]c2c1)[C@@H]1C[C@H](N2CCOCC2)CN1C(=O)/C=C/c1cc(Cl)ccc1-n1cnnn1` [Example 43, (2S,4S)—N-(1H-benzotriazol-6-yl)-1-{(2E)-3-[5-chloro-2-(1H-tetrazol-1-yl)phenyl]-2-propenoyl}-4-(4-morpholinyl)-2-pyrrolidinecarboxamide trifluoroacetate], the IC50 was 0.011 µM on Human Factor XIa, over 100 µM on Human Factor Xa and over 100 µM at human thrombin.

In the case of `COC(=O)Nc1ccc(-c2[nH]c([C@@H]3C[C@H](N4CCN(S(C)(=O)=O)CC4)CN3C(=O)C3CCN(C(=N)N)CC3)nc2Cl)cc1` [Example 99, methyl [4-(2-{(2S,4S)-1-(1-carbamimidoyl-4-piperidinyl)carbonyl]-4-[4-(methylsulfonyl)-1-piperazinyl-2-pyrrolidinyl}-4-chloro-1H-imidazol-5-yl)phenyl]carbamate trihydrochloride], the IC50 at Human Factor XIa is 0.0012 µM; on Human Factor Xa, over 100 µM; on human thrombin it was 84 µM.

Take `CS(=O)(=O)N1CCC([C@H]2C[C@@H](C(=O)Nc3ccc(C(=O)O)cc3)N(C(=O)c3ccc(C(=N)N)cc3)C2)CC1` [Example 111, 4-[({(2S,4R)-1-(4-carbamimidoylbenzoyl-4-[1-(methylsulfonyl)-4-piperidinyl]-2-pyrrolidinyl}carbonyl)amino]benzoic acid hydrochloride]: the IC50 at Human Factor XIa is 0.0085 µM; on human thrombin, over 100 µM.

As to `C[C@H]1CN([C@H]2C[C@@H](C(=O)Nc3ccccc3)N(C(=O)/C=C/c3cc(Cl)ccc3-n3cnnn3)C2)CCN1S(N)(=O)=O` [Example 57, (2S,4S)-1-{(2E)-3-[5-chloro-2-(1H-tetrazol-1-yl)phenyl]-2-propenoyl}-4-[(3S)-3-methyl-4-sulfamoyl-1-piperazinyl]-N-phenyl-2-pyrrolidinecarboxamide trifluoroacetate], the half-maximal inhibitory concentration (IC50) at Human Factor XIa is 0.027 µM; on Human Factor Xa, over 100 µM; on human thrombin, over 100 µM.

For `COC(=O)Nc1ccc(-c2[nH]c([C@@H]3C[C@H](C4CCN(S(C)(=O)=O)CC4)CN3C(=O)[C@H]3CC[C@H]([C@H](C)N)CC3)nc2Cl)cc1` [Example 86, methyl [4-(2-{(2S,4R)-1-({trans-4-[(1S)-1-aminoethyl]cyclohexyl}carbonyl)-4-[1-(methylsulfonyl)-4-piperidinyl]-2-pyrrolidinyl}-4-chloro-1H-imidazol-5-yl)phenyl]carbamate bis(trifluoroacetate)], the half-inhibitory concentration (IC50) was 0.0099 µM on Human Factor XIa, over 100 µM at Human Factor Xa and over 100 µM at human thrombin.

Consider `COC(=O)Nc1ccc(-c2cnc([C@@H]3C[C@H](N4CCN(S(C)(=O)=O)CC4)CN3C(=O)C3CCN(C(=N)N)CC3)[nH]2)cc1` [Example 98, methyl [4-(2-(2S,4S)-1-[(1-carbamimidoyl-4-piperidinyl)carbonyl]-4-[4-(methylsulfonyl)-1-piperazinyl]-2-pyrrolidinyl-1H-imidazol-5-yl)phenyl]carbamate trihydrochloride], for which the figures for the IC50 at Human Factor XIa, at Human Factor Xa and at human thrombin were 0.0023 µM, over 100 µM and over 100 µM, respectively.

Turning to `O=C(Nc1ccccc1)[C@@H]1C[C@H](N2CCN(S(=O)(=O)c3ccccc3)CC2)CN1C(=O)/C=C/c1cc(Cl)ccc1-n1cnnn1` [Example 39, (2S,4S)-1-{(2E)-3-[5-chloro-2-(1H-tetrazol-1-yl)phenyl]-2-propenoyl}-N-phenyl-4-[4-(phenylsulfonyl)-1-piperazinyl]-2-pyrrolidinecarboxamide], the IC50 at Human Factor XIa was 0.078 µM; at Human Factor Xa, over 100 µM; on human thrombin, over 100 µM.

`CS(=O)(=O)N1CCN([C@H]2C[C@@H](C(=O)Nc3ccc(C(=O)O)cc3)N(C(=O)c3ccc(C(=N)N)cc3)C2)CC1` [Example 20, 4-[({(2S,4S)-1-(4-carbamimidoylbenzoyl)-4-[4-(methylsulfonyl)-1-piperazinyl]-2-pyrrolidinyl}carbonyl)amino]benzoic acid bis(trifluoroacetate)]: the half-inhibitory concentration (IC50) on Human Factor XIa is 0.0032 µM; on Human Factor Xa, over 100 µM; on human thrombin, over 100 µM.

With `CS(=O)(=O)N1CCN([C@H]2C[C@@H](C(=O)Nc3ccc(C(=O)O)cc3)N(C(=O)C3CCN(C(=N)N)CC3)C2)CC1` [Example 9, 4-[({(2S,4S)-1-[(1-carbamimidoyl-4-piperidinyl)carbonyl]-4-[4-(methylsulfonyl)-1-piperazinyl]-2-pyrrolidinyl}carbonyl)amino]benzoic acid bis(trifluoroacetate)], the values for the IC50 at Human Factor XIa, on Human Factor Xa and on human thrombin were 0.017 µM, over 100 µM and over 100 µM, respectively.
